Structures are written as SMILES. Changes are numbered by the printed parent chain.

The text below walks through data of paper doi:10.1101/2020.11.21.391136v1 (biorxiv, 2020).

Test [1] concerns the target T1, A1R (Homo sapiens, UniProt P30542).
T1 sequence (P30542 1-326): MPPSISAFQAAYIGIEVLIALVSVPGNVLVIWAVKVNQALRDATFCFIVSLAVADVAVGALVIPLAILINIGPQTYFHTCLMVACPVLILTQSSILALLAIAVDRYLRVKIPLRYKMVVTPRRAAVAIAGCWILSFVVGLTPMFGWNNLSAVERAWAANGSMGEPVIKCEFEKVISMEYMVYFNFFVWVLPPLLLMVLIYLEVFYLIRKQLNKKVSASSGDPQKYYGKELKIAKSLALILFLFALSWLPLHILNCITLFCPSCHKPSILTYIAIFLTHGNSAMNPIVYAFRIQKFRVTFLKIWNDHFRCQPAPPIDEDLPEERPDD
The test is described as follows: TGF-alpha shedding assay, HEK293A. Format: cell-based.

Test [2] has as its target T2, Ss-A3R (Sus scrofa, UniProt F1SBN8).
T2 sequence (F1SBN8 1-318): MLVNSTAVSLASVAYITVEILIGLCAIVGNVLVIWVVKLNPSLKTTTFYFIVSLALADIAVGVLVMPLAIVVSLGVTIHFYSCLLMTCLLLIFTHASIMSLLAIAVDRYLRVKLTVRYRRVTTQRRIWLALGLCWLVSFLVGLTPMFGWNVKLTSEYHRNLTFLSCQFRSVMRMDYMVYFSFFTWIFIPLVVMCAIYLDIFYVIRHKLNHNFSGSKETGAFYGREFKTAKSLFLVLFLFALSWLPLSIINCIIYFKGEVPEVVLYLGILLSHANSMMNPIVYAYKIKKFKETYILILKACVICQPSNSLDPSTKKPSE
The experiment in a line: TGF-alpha shedding assay, HEK293A. Format: cell-based.

In test [3] the target is T3, A2AR (Homo sapiens, UniProt P29274). The test is described as follows: TGF-alpha shedding assay, HEK293A. Format: cell-based.
Test [4] concerns the target T4, A2BR (Homo sapiens, UniProt P29275).
T4 sequence (P29275 1-332): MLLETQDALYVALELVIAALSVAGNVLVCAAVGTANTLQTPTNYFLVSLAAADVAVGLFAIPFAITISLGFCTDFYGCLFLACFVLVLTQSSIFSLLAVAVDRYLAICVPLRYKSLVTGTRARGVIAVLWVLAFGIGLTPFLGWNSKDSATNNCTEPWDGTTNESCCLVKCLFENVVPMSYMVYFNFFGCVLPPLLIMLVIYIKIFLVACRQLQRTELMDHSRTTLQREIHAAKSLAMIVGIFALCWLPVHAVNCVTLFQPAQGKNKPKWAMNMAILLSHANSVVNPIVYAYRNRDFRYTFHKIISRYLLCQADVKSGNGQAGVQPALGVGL
The experiment in a line: TGF-alpha shedding assay, HEK293A. Format: cell-based.

The target of test [5] is T5, A3R (Hs-A3R) L264T (Homo sapiens, UniProt P0DMS8, L264T).
T5 sequence (P0DMS8 1-318 L264T): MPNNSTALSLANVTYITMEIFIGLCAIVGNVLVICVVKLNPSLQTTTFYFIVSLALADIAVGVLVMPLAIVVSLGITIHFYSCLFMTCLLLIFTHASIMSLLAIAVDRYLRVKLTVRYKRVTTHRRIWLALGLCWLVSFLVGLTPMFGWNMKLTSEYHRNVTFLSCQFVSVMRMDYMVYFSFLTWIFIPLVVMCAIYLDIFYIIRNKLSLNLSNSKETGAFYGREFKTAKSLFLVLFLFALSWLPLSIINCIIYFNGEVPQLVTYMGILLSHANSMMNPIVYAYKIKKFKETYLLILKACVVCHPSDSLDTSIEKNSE
The test is described as follows: cell-based. Set-up: species or system HEK293A.

The target of test [6] is T6, A1R T270L (Homo sapiens, UniProt P30542, T270L).
T6 sequence (P30542 1-326 T270L): T1 sequence (P30542 1-326) with T270L
The experiment in a line: cell-based. Set-up: species or system HEK293A.

Test [7] deals with T7, A3R (Hs-A3R) (Homo sapiens, UniProt P0DMS8, I253T).
T7 sequence (P0DMS8 1-318 I253T): T5 sequence (P0DMS8 1-318 L264T) with I253T, T264L
The test is described as follows: cell-based. Details: species or system HEK293A.

Test [8] addresses T8, A3R (Hs-A3R) (Homo sapiens, UniProt P0DMS8, L264M).
T8 sequence (P0DMS8 1-318 L264M): T5 sequence (P0DMS8 1-318 L264T) with T264M
The test is described as follows: cell-based. Details: species or system HEK293A.

In test [9] the target is T6, A1R T270L. The test is described as follows: cell-based. Set-up: species or system HEK293A. The conditions noted are these: HEK293-A, read-out: Emax (%).
The target of test [10] is T9, A3R (Hs-A3R) (Homo sapiens, UniProt P0DMS8).
T9 sequence (P0DMS8 1-318): T5 sequence (P0DMS8 1-318 L264T) with T264L
The test is described as follows: cell-based. Set-up: species or system HEK293A.

Test [11] deals with T1, A1R. Set-up: species or system HEK293A. The conditions noted are these: % AP-TGFα release, not normalised to a reference agonist.
In test [12] the target is T10, A1R (Homo sapiens, UniProt P30542, E172V).
T10 sequence (P30542 1-326 E172V): T1 sequence (P30542 1-326) with E172V
The test is described as follows: cell-based. Set-up: species or system HEK293A. The following applies: HEK293-A, read-out: Emax (%).

Test [13] concerns the target T5, A3R (Hs-A3R) L264T. The experiment in a line: cell-based. Set-up: species or system HEK293A. The source holds these as a separate data set.
In test [14] the target is A2AR (Homo sapiens, UniProt P29274, T256I). The experiment in a line: cell-based. Set-up: species or system HEK293A. The following applies: HEK293-A, read-out: Emax (%).
The target of test [15] is A2AR (Homo sapiens, UniProt P29274, E169V). Set-up: species or system HEK293A. The following applies: % AP-TGFα release, not normalised to a reference agonist.
Test [16] has as its target T11, A1R (Homo sapiens, UniProt P30542, T257I).
T11 sequence (P30542 1-326 T257I): T1 sequence (P30542 1-326) with T257I
The test is described as follows: cell-based. The conditions noted are these: HEK293-A, read-out: Emax (%). Details: species or system HEK293A.

The target of test [17] is T12, A3R (Hs-A3R) (Homo sapiens, UniProt P0DMS8, V169E).
T12 sequence (P0DMS8 1-318 V169E): T5 sequence (P0DMS8 1-318 L264T) with V169E, T264L
The experiment in a line: cell-based. Set-up: species or system HEK293A.

Test [18] has as its target T4, A2BR. The experiment in a line: cell-based. Set-up: species or system HEK293A.
The target of test [19] is T3, A2AR. The test is described as follows: cell-based. Details: species or system HEK293A. The following applies: HEK293-A, read-out: Emax (%).
Test [20] addresses A2AR (Homo sapiens, UniProt P29274, M270L). The test is described as follows: cell-based. Details: species or system HEK293A. The conditions noted are these: HEK293-A, read-out: Emax (%).
Where [21] appears, read: % AP-TGFα release, not normalised to a reference agonist, agonist.

T3 sequence (P29274 whole entry): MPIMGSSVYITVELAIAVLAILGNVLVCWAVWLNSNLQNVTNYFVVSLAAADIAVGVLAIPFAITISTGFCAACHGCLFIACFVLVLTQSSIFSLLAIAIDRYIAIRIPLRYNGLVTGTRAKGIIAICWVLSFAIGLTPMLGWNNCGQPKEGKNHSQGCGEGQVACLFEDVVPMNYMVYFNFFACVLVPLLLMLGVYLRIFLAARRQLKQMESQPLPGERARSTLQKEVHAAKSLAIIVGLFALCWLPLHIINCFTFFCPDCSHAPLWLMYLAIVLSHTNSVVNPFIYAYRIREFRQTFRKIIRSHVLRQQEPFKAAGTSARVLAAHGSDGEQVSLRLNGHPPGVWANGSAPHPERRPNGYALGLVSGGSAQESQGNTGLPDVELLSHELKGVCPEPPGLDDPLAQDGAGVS
A2AR (Homo sapiens, UniProt P29274, T256I), sequence (P29274 whole entry T256I): as the sequence (P29274 whole entry) above, with T256I counted along it
A2AR (Homo sapiens, UniProt P29274, M270L), sequence (P29274 whole entry M270L): as the sequence (P29274 whole entry) above, with M270L counted along it
A2AR (Homo sapiens, UniProt P29274, E169V), sequence (P29274 whole entry E169V): as the sequence (P29274 whole entry) above, with E169V counted along it

Consider `CNc1ncnc2c1ncn2[C@@H]1O[C@H](CO)[C@@H](O)[C@H]1O` [m^6A], for which the EC50 came to 840 ± 130 nM in [1]; 39 ± 3.1 nM in [2]; 13000 ± 1100 nM in test [3]; 51000 ± 6400 nM in [4]; 6.4 ± 0.44 nM in test [5]; 540 ± 62 nM in [6]. Further, the maximum response (Emax) was found to be 41 ± 2.2% in [7] (HEK293-A, read-out: Emax (%)); 43 ± 1.7% in test [8] (HEK293-A, read-out: Emax (%)); 15 ± 1.6% in test [9]; 43 ± 2.1% in [10] (HEK293-A, read-out: Emax (%)); 32 ± 1.9% in test [12]; 27 ± 2.2% in [13] (HEK293-A, read-out: Emax (%)). For the same compound, the maximum response (Emax) in [14] was 30 ± 1.7%; in test [16], 42 ± 1.2%; in [17] (HEK293-A, read-out: Emax (%)), 22 ± 2%; in test [18] (HEK293-A, read-out: Emax (%)), 76 ± 4.7%; in test [19], 17 ± 0.57%; in test [20], 3.5 ± 0.68%. Moreover, the “Emax (%)” value is listed as 17 ± 2.2% in test [11] and 29 ± 2.0% in [15].
As to `Nc1ncnc2c1ncn2[C@@H]1O[C@H](CO)[C@@H](O)[C@H]1O` [adenosine], the “Emax (%)” value in test [7] (setting [21]) is listed as 37 ± 2.0%; in test [8] (setting [21]), 39 ± 2.6%; in test [10] (setting [21]) it was 39 ± 0.82%; in test [13] (setting [21]), 22 ± 0.84%; in test [17] (setting [21]) it was 14 ± 4.1%; in test [18] (setting [21]), 57 ± 1.2%.
